Test results as given in ChEMBL document CHEMBL4765284, “Optimization of 5-substituted thiazolyl ureas and 6-substituted imidazopyridines as potential HIV-1 latency reversing agents” (Eur J Med Chem, 2020).

Experiments:
[1] = test system: Human immunodeficiency virus 1; experiment: Antiviral activity against HIV-1 infected in FlpIn-HEK293 cells assessed as activation of long terminal repeat driven gene expression incubated for 72 hrs by luciferase based cellular assay; format: functional, organism-based; conditions: Human immunodeficiency virus 1, HEK293, 72 h
Cytomegalovirus = experiment: Antiviral activity against CMV infected in FlpIn-HEK293 cells assessed as click beetle green reporter driven gene expression incubated for 72 hrs by luciferase based cellular assay; format: functional, organism-based; conditions: HEK293, 72 h

Row | Structure (SMILES) | EC50 [1] [µM] | EC50 (Cytomegalovirus) [µM]
1 | Cc1cnc(NC(=O)N2CCN(c3cncnc3)CC2)s1 | > 40 | > 40
2 | Cc1cnc2sc(CCCOc3ccc(C)c(Cl)c3)nc2c1 | > 40 | > 40
3 | Cc1ccc(N2CCN(c3nc4cc(Br)cnc4[nH]3)CC2)cc1Cl | 0.32 | > 0.3
4 | Cc1ccc(N2CCN(C(=O)Nc3ncc(C(F)(F)F)s3)CC2)cc1Cl | 1.3 | > 2
5 | Cc1ccc(N2CCN(C(=O)Nc3nccs3)CC2)cc1Cl | 3.4 | 4
6 | Cc1cc(N2CCN(C(=O)Nc3ncc(Cl)s3)CC2)cnc1C#N | 0.21 | 0.83
7 | Cc1cnc(NC(=O)N2CCN(c3ccccc3)CC2)s1 | 1.7 | 5
8 | Clc1cnc2[nH]c(CCCOc3ccc(Cl)c(Cl)c3)nc2c1 | 3.3 | 1.2
9 | Cc1cc(N2CCN(C(=O)Nc3ncc(Cl)s3)CC2)ncc1C#N | 0.46 | 1
10 | Cc1ccc(N2CCN(C(=O)Nc3ncc(C#N)s3)CC2)cc1Cl | 0.24 | 2.3
11 | O=C(Nc1ncc(Cl)s1)N1CCN(c2cc(C(F)(F)F)c(Cl)cn2)CC1 | 0.92 | 1.8
12 | O=C(Nc1ncc(Cl)s1)N1CCN(c2ccc(Cl)cc2)CC1 | 0.35 | 1.64
13 | Cc1ccc(N2CC3(CN(C(=O)Nc4ncc(Cl)s4)C3)C2)cc1Cl | 16 | 19
14 | Cc1ccc(OCCCc2nc3ncc(Cl)cc3s2)cc1Cl | > 40 | > 40
15 | O=C(Nc1ncc(Cl)s1)N1CCN(c2ccc(Cl)c(Cl)c2)CC1 | 0.31 | 0.8
16 | O=C(Nc1ncc(C(F)(F)F)s1)N1CCN(c2cnc(Cl)c(Cl)c2)CC1 | 0.7 | 0.48

Row | Structure (SMILES) | EC50 [1] [µM] | EC50 (Cytomegalovirus) [µM]
17 | Cc1ccc(N2CCC(C(=O)Nc3ncc(Cl)s3)CC2)cc1Cl | 2 | > 40
18 | Cc1cnc(NC(=O)N2CCN(c3cnc(Cl)c(Cl)c3)CC2)s1 | 0.3 | 0.57
19 | Cc1cnc2[nH]c(N3CCN(c4cnc(Cl)c(Cl)c4)CC3)nc2c1 | 1.3 | 0.13
20 | Cc1cnc(NC(=O)N2CCN(c3cc(C(F)(F)F)c(Cl)cn3)CC2)s1 | 0.73 | > 40
21 | Cc1ccc(N(C)C2CN(C(=O)Nc3ncc(Cl)s3)C2)cc1Cl | 0.93 | 2.8
22 | O=C(Nc1ncc(Cl)s1)N1CCN(c2cncnc2)CC1 | 8.9 | 12
23 | Cc1cnc(NC(=O)N2CCN(c3cccc(C#N)c3)CC2)s1 | 0.23 | 1.8
24 | Cc1cnc2[nH]c(N3CCN(c4ccc(Cl)c(Cl)c4)CC3)nc2c1 | 0.75 | 0.82
25 | N#Cc1cnc(NC(=O)N2CCN(c3ccc(Cl)cc3)CC2)s1 | 1.5 | 3.6
26 | Cc1cnc(NC(=O)N2CCN(c3cc(C)c(C#N)cn3)CC2)s1 | 4.2 | > 40
27 | Cc1cnc2[nH]c(CCCOc3ccc(C)c(Cl)c3)nc2c1 | 12 | 24
28 | Clc1cnc2[nH]c(N3CCN(c4ccc(Cl)c(Cl)c4)CC3)nc2c1 | 0.98 | 2.6
29 | Cc1ccc(N2CCN(C(=O)Nc3ncc(Cl)s3)C(C)C2)cc1Cl (stereo not given) | 1.3 | 1.5
30 | Cc1cnc2[nH]c(CCCOc3ccc(Cl)c(Cl)c3)nc2c1 | 14 | 28
31 | Cc1ccc(OC2CN(C(=O)Nc3ncc(Cl)s3)C2)cc1Cl | 0.53 | 1.9
32 | Cc1cnc2[nH]c(CCCOc3cnc(Cl)c(Cl)c3)nc2c1 | 21 | 34

Now from value to compound:

Row | EC50 [1] [µM] | EC50 (Cytomegalovirus) [µM] | Structure (SMILES)
33 | 22 | 19 | Cc1ccc(N2CCCN(C(=O)Nc3ncc(Cl)s3)CC2)cc1Cl
34 | 2 | 5.2 | Cc1cnc(NC(=O)N2CCC(Oc3ccc(Cl)c(C)c3)C2)s1 (stereo not given)
35 | > 40 |  | Cc1cc(OC2CCCN(C(=O)Nc3ncc(Cl)s3)C2)ccc1Cl (stereo not given)
36 | > 40 | > 40 | Cc1cc(N[C@@H]2CCCN(C(=O)Nc3ncc(Cl)s3)C2)ccc1Cl
37 | 2.7 | 5.5 | Cc1cnc(NC(=O)N2CCN(c3ccc(Cl)cc3)CC2)s1
38 | 10 | 21 | Cc1cnc(NC(=O)N2CCCN(c3ccc(C)c(Cl)c3)CC2)s1
39 | 1.5 | 2.5 | Cc1cc(OC2CCN(C(=O)Nc3ncc(Cl)s3)C2)ccc1Cl (stereo not given)
40 | 8.9 | 6.5 | Cc1cnc(NC(=O)N2CCN(c3ccc(C)c(Cl)c3)C(C)C2)s1 (stereo not given)
41 | 0.82 | 3.7 | Cc1ccc(N2CCN(C(=O)Nc3ncc(Cl)s3)CC2C)cc1Cl (stereo not given)
42 | > 40 | > 40 | Cc1cnc(NC(=O)N2CC3(C2)CN(c2ccc(C)c(Cl)c2)C3)s1
43 | > 40 | > 40 | Cc1cc(NC2CCN(C(=O)Nc3ncc(Cl)s3)CC2)ccc1Cl
44 | > 40 | 20 | Cc1cnc(NC(=O)N2CCC(Nc3ccc(Cl)c(C)c3)CC2)s1
45 | 11 | 20 | Cc1cc(N(C)C2CCN(C(=O)Nc3ncc(Cl)s3)C2)ccc1Cl (stereo not given)
46 | > 40 | > 40 | Cc1cc(N(C)C2CCN(C(=O)Nc3ncc(Cl)s3)CC2)ccc1Cl
47 | 12 | 16 | Cc1cnc(NC(=O)N2CC(N(C)c3ccc(C)c(Cl)c3)C2)s1
48 | > 40 | 33 | Cc1cnc(NC(=O)N2CCC(N(C)c3ccc(Cl)c(C)c3)C2)s1 (stereo not given)

Row | EC50 [1] [µM] | EC50 (Cytomegalovirus) [µM] | Structure (SMILES)
49 | 6.2 | 14 | Cc1cnc(NC(=O)N2CCC(Nc3ccc(Cl)c(C)c3)C2)s1 (stereo not given)
50 | 0.67 | 3 | Cc1cnc(NC(=O)N2CC(Nc3ccc(C)c(Cl)c3)C2)s1
51 | > 40 | 40 | Cc1cnc(NC(=O)N2CCC(Oc3ccc(Cl)c(C)c3)CC2)s1
52 | 0.22 | 1.9 | Cc1cnc(NC(=O)N2CC(Oc3ccc(C)c(Cl)c3)C2)s1
53 | > 40 |  | Cc1cc(N[C@H]2CCCN(C(=O)Nc3ncc(Cl)s3)C2)ccc1Cl
54 | 0.4 | 0.89 | Cc1cc(N2CCN(C(=O)Nc3ncc(Cl)s3)CC2)ccc1Cl
55 | 20 | 20 | Cc1cc(OC2CCN(C(=O)Nc3ncc(Cl)s3)CC2)ccc1Cl
56 | > 40 | > 40 | Cc1cnc(NC(=O)N2CCC[C@@H](Nc3ccc(Cl)c(C)c3)C2)s1
57 | 5 | 5.2 | Cc1cnc(NC(=O)N2CCN(c3ccc(C)c(Cl)c3)CC2C)s1 (stereo not given)
58 | 10 | 21 | Cc1cnc(NC(=O)N2CCN(c3cnc(C#N)c(C)c3)CC2)s1
59 | > 40 |  | Cc1cnc(NC(=O)N2CCC[C@H](Nc3ccc(Cl)c(C)c3)C2)s1
60 | 0.71 | 2.3 | Cc1cc(N2CCN(C(=O)Nc3ncc(C#N)s3)CC2)ccc1Cl
61 | 2.5 | > 40 | Cc1cnc(NC(=O)C2CCN(c3ccc(C)c(Cl)c3)CC2)s1
62 | 0.93 | 0.49 | Cc1cnc(NC(=O)N2CCN(c3ccc(Cl)c(Cl)c3)CC2)s1
63 | 0.47 | 5 | Cc1cnc(NC(=O)N2CCN(c3ccc(C)c(Cl)c3)CC2)s1
64 | 0.6 | 2.3 | Cc1cnc(NC(=O)N2CCN(c3ccc(Cl)c(C)c3)CC2)s1
